Read-outs that look alike come from different tables or passages of the source.
Assays:
capsaicin-induced cough = assay: Antitussive action in rat, capsaicin-induced cough; assay type: in vivo; settings: ip, 0.5 h, dosage for 50% cough inhibition, intraperitoneal, 10% DMSO solution, 30 minutes after administration
Procedure: Evaluation of Antitussive Action in Rat as a Model for Capsaicin-Induced Cough
Cough was induced by forcing rats to inhale capsaicin (60 μM) which was nebulized by an ultrasonic nebulizer, and fed to caps over the rats' heads through silicone tubes by a respirator. Capsaicin was fed for inhalation at a rate of 70 times/min. and 10 ml each time.
Two hundred and seventy minutes before the drug administration, capsaicin was inhaled for 5 minutes, and inducement of coughing was confirmed during this period. Thirty minutes after the drug administration, capsaicin was inhaled for 5 minutes, and the number of induced coughs during capsaicin inhalation was counted. Antitussive effect was evaluated by determining an inhibitory ratio, namely, the ratio of the number of coughs after the drug administration to that before the drug administration. Capsaicin was dissolved in saline. Each drug was dissolved in a 10% DMSO solution and intraperitoneally administered. The effect of the drug is expressed with an ED50 value which is the dosage for 50% cough inhibition

δ-opioid [1] = biological target: T1, δ-opioid (Mus musculus, UniProt P32300); assay: δ-opioid antagonism against DPDPE in mouse vas deferens (MVD); assay type: biochemical, mouse (male ddy strain); settings: for pA2: MVD, 100 nM sample compound added 20 minutes before cumulative DPDPE, Schild method
T1 construct: Each of the vas deferens isolated from the mice was hung in a Magnus tube; from tissue; host or cells: isolated vas deferens of male ddy strain mice
Procedure: (§1) Using mouse vas deferens (MVD), antagonistic compounds were examined for antagonism against a δ-opioid agonist DPDPE, and agonistic compounds were examined for inhibitory activity against MVD contraction by electric stimulation, and for antagonism by a δ-opioid antagonist NTI.
(§2) Male ddy strain mice were used in this experiment. Each of the vas deferens isolated from the mice was hung in a Magnus tube which was filled with a Krebes-Henseleit solution (NaCl […]; KCl 4.7 mM; CaCl2 2.5 mM; KH2 PO4 1.1 mM; NaHCO3 25 mM; glucose 11 mM), and aerated with a gas of 5% carbon dioxide and 95% oxygen and maintained at 37° C. Electric stimulation was applied through upper and lower ring-shaped platinum electrodes at 0.1 Hz and 5.0 mS. Tissue contraction was recorded on a polygraph using an isometric transducer.
Initially, DPDPE was added in a cumulative manner to determine the IC50 value (concentration for 50% inhibition of contraction induced by electric stimulation). Next, 100 nM of a sample compound was added to the system beforehand, and 20 minutes later, DPDPE was added in a cumulative manner. According to the above procedure, the ratio of the IC50 value of DPDPE in the presence of the sample compound to that in the absence of it was determined, and the pA2 value was calculated in accordance with the Schild, et al.'s method [Schild, H. O., Br. J. Pharamacol. Chamother. 4, 277 (1949)].

acetic acid writhing = assay: Analgesic action, acetic acid writhing test in mouse; assay type: in vivo, mouse (ddY strain); settings: sc, dorsal-subcutaneous, 15 minutes before acetic acid, writhing reactions over 10 minutes
Procedure: Evaluation of Analgesic Action by Acetic Acid Writhing Test in Mouse
Five-week-old ddY strain mice were subjected to this experiment. A 0.6% acetic acid solution was intraperitoneally administered at a volume of 0.1 ml/10 g·.body weight. Analgesic activity was evaluated with an index which was the number of writhing reactions occurring over 10 minutes from 10 minutes after administration. The drug to be evaluated was dorsal-subcutaneously administered 15 minutes before the administration of acetic acid.

δ-opioid [2] = biological target: T1, δ-opioid; assay: δ-opioid agonism: inhibition of electrically stimulated mouse vas deferens (MVD) contraction, antagonism by NTI; assay type: biochemical, mouse (male ddy strain); design: Ke: unit not given here; settings: for Ke: against NTI added 20 minutes before, Ke=[NTI Concentration]/[(IC50 ratio)-1]
Procedure: as §1, §2
Initially, a sample compound was added in a cumulative manner to determine the IC50 value (concentration for 50% inhibition of contraction induced by electric stimulation). Next, […] was added to the system beforehand, and 20 minutes later, the sample compound was added in a cumulative manner. According to the above procedure, the ratio of the IC50 values of the sample compound in the presence of NTI to that in the absence of NTI was determined, and the Ke value was calculated in accordance with the following equation.
Ke=[NTI Concentration]/[(IC50 ratio)-1]

T1 sequence (P32300 whole entry): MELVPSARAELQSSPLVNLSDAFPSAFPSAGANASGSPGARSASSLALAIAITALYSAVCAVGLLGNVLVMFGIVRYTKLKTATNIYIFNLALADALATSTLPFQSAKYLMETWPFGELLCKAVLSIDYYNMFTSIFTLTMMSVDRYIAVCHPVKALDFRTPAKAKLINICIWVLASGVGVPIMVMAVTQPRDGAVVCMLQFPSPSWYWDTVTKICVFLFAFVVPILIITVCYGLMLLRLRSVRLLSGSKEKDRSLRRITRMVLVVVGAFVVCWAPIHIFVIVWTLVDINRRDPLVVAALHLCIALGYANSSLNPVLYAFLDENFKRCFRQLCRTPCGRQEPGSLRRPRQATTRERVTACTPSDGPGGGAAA

| SMILES | ED50 (capsaicin-induced cough) [mg/kg] | Kb (δ-opioid [1]) [nM] | Ke (δ-opioid [2]) | also measured |
| --- | --- | --- | --- | --- |
| Oc1ccc2c3c1O[C@H]1c4c(c5ccc6cccc7c6c5n4CC7)C[C@@]4(O)[C@@H](C2)N(CC2CC2)CC[C@]314 [Compound 2, 17-cyclopropylmethyl-6,7-didehydro-4,5α-epoxy-3,14β-dihydroxy-1',3"-ethylene-6',7'-benzo-6,7,2',3'-indolomorphinan] | 0.00171 | 2 | – | – |
| Oc1ccc2c3c1O[C@H]1c4c(c5cccc6c5n4Cc4ccccc4-6)C[C@@]4(O)[C@@H](C2)N(CC2CC2)CC[C@]314 [Compound 3, 17-cyclopropylmethyl-6,7-didehydro-4,5α-epoxy-3,14β-dihydroxy-1',7'-(2",3"-benzotrimethylene)-6,7,2',3'-indolomorphinan] | 0.00437 | 2.51 | – | – |
| Oc1ccc2c3c1O[C@H]1c4c(c5cccc6c5n4CCC6)C[C@@]4(O)[C@@H](C2)N(CC2CC2)CC[C@]314 [Compound 4, 17-cyclopropylmethyl-6,7-didehydro-4,5α-epoxy-3,14β-dihydroxy-1',7'-trimethylene-6,7,2',3'-indolomorphinan] | 0.00858 | 0.398 | – | – |
| Cc1ccc2c3c1c1c(n3CCC2)[C@@H]2Oc3c(O)ccc4c3[C@@]23CCN(CC2CC2)[C@H](C4)[C@]3(O)C1 [Compound 5, 17-cyclopropylmethyl-6,7-didehydro-4,5α-epoxy-3,14β-dihydroxy-1',7'-trimethylene-4'-methyl-6,7,2',3'-indolomorphinan] | 0.0208 | 5.01 | – | – |
| COc1ccc2c3c(n4c2c1CCC4)[C@@H]1Oc2c(O)ccc4c2[C@@]12CCN(CC1CC1)[C@H](C4)[C@]2(O)C3 [Compound 6, 17-cyclopropylmethyl-6,7-didehydro-4,5α-epoxy-3,14β-dihydroxy-1',7'-trimethylene-6'-methoxy-6,7,2',3'-indolomorphinan] | 0.00943 | 3.16 | – | – |
| Cc1cc2c3c(c1)c1c(n3CCC2)[C@@H]2Oc3c(O)ccc4c3[C@@]23CCN(CC2CC2)[C@H](C4)[C@]3(O)C1 [Compound 7, 17-cyclopropylmethyl-6,7-didehydro-4,5α-epoxy-3,14β-dihydroxy-1',7'-trimethylene-5'-methyl-6,7,2',3'-indolomorphinan] | 0.0163 | 5.01 | – | – |
| Oc1ccc2c3c1O[C@H]1c4c(c5cccc6c5n4CCCC6)C[C@@]4(O)[C@@H](C2)N(CC2CC2)CC[C@]314 [Compound 9, 17-cyclopropylmethyl-6,7-didehydro-4,5α-epoxy-3,14β-dihydroxy-1',7'-tetramethylene-6,7,2',3'-indolomorphinan] | 0.0123 | – | – | pA2 (δ-opioid [1]): 8.5 |
| Oc1ccc2c3c1O[C@H]1c4c(c5cc(F)cc6c5n4CCC6)C[C@@]4(O)[C@@H](C2)N(CC2CC2)CC[C@]314 [Compound 10, 17-cyclopropylmethyl-6,7-didehydro-4,5α-epoxy-3,14β-dihydroxy-1',7'-trimethylene-5'-fluoro-6,7,2',3'-indolomorphinan] | 0.0157 | 1.58 | – | – |
| COc1ccc2c3c1O[C@H]1c4c(c5cccc6c5n4CCC6)C[C@@]4(O)[C@@H](C2)N(CC2CC2)CC[C@]314 [Compound 11, 17-Cyclopropylmethyl-6,7-didehydro-4,5α-epoxy-3-methoxy-14β-hydroxy-1',7'-trimethylene-6,7,2',3'-indolomorphinan] | 0.00343 | – | – | pA2 (δ-opioid [1]): 8.2 |
| C=CCCN1CC[C@]23c4c5ccc(O)c4O[C@H]2c2c(c4cccc6c4n2CCC6)C[C@@]3(O)[C@H]1C5 [Compound 28, 17-(3-butenyl)-6,7-didehydro-4,5α-epoxy-3,14β-dihydroxy-1',7'-trimethylene-6,7,2',3'-indolomorphinan] | – | – | 0.05 | ED50 (acetic acid writhing): 16.7 mg/kg; IC50 (δ-opioid [2]): 15.8 nM |
| CN1CC[C@]23c4c5ccc(O)c4O[C@H]2c2c(c4cccc6c4n2CCC6)C[C@@]3(O)[C@H]1C5 [Compound 55, 17-Methyl-6,7-didehydro-4,5α-epoxy-3,14β-dihydroxy-1',7'-trimethylene-6,7,2',3'-indolomorphinan] | – | – | 0.21 | IC50 (δ-opioid [2]): 18.2 nM |
| Oc1ccc2c3c1O[C@H]1c4c(c5cccc6c5n4CCC6)C[C@@]4(O)[C@@H](C2)N(CC2CCC2)CC[C@]314 [Compound 56, 17-cyclobutylmethyl-6,7-didehydro-4,5α-epoxy-3,14β-dihydroxy-1',7'-trimethylene-6,7,2',3'-indolomorphinan] | – | – | 6.21 | IC50 (δ-opioid [2]): 2.96 nM |
| Oc1ccc2c3c1O[C@H]1c4c(c5cccc6c5n4CCC6)C[C@@]4(O)[C@@H](C2)N(CCc2ccccc2)CC[C@]314 [Compound 57, 17-phenethyl-6,7-didehydro-4,5α-epoxy-3,14β-dihydroxy-1',7'-trimethylene-6,7,2',3'-indolomorphinan] | – | – | 0.06 | IC50 (δ-opioid [2]; concentration for 50% inhibition of MVD contraction induced by electric stimulation): 9.71 nM |
| Oc1ccc2c3c1O[C@H]1c4c(c5cccc6c5n4CCC6)C[C@@]4(O)[C@@H](C2)N(CCc2cccs2)CC[C@]314 [Compound 65, 17-(thiophene-2-ylethyl)-6,7-didehydro-4,5α-epoxy-3,14β-dihydroxy-1',7'-trimethylene-6,7,2',3'-indolomorphinan] | – | – | 0.03 | IC50 (δ-opioid [2]): 33.9 nM |
